# ChEMBL document CHEMBL1201862, “PubChem BioAssay data set” (2004)
# Activity calls are given as the source filed them.
# Legend:
# [1] = biological target: T1, Voltage-gated N-type calcium channel alpha-1B subunit/Amyloid beta A4 precursor protein-binding family A member 1 (Homo sapiens, UniProt Q00975+Q02410); assay type: protein assay
# [2] = biological target: T1, Voltage-gated N-type calcium channel alpha-1B subunit/Amyloid beta A4 precursor protein-binding family A member 1; assay type: protein assay; remark: listed apart in the source
# [3] = biological target: Cytochrome P450 2C19 (Homo sapiens, UniProt P33261); assay: Cytochrome panel assay with activity outcomes. Panel member name: p450-cyp2c19 Compounds with AC50 equal or less than 10 uM are considered active; assay type: functional; details: read-out: AC50
# Cytochrome P450 2C19, sequence (P33261 whole entry): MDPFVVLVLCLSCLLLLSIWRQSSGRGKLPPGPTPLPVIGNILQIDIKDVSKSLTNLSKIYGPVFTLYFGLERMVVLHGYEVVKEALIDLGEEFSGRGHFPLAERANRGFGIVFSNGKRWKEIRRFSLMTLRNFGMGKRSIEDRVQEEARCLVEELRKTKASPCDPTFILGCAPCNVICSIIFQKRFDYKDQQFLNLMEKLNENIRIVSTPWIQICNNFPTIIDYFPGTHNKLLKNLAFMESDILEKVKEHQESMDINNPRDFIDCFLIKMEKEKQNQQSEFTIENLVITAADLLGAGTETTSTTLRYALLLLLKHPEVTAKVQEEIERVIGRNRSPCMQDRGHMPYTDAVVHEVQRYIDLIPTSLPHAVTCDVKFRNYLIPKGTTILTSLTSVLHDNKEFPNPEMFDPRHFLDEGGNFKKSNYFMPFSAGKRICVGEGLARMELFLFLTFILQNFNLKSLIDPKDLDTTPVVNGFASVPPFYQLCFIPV
# [4] = biological target: Cytochrome P450 2D6 (Homo sapiens, UniProt P10635);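 note: CYP2D6 member of a cytochrome P450 panel assay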
# [5] = viability of uninfected HEp-2 cells – cell-based, HTS, cytotoxicity control for RSV inhibitor project, dose response (AID 2410); assay type: functional; details: human respiratory syncytial virus
# [6] = biological target: SUMO-activating enzyme (Homo sapiens, UniProt Q9UBT2); assay: blockers of UBC9-mediated SUMO conjugation – biochemical, AlphaScreen, SUMOylation inhibitor project, confirmation (AID 2018); assay type: functional
# [7] = viability of PTEN-deleted HCT116 cells – cell-based, HCT116 PTEN knockout, dose response (AID 1047); assay type: functional;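 note: HCT116 colon tumor cells with PTEN knocked out; cells exposed to compound for 60 hours before readout; potency for loss of cell viability measured by luminescence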
# [8] = biological target: T2, RNA-binding protein pos-1 (Caenorhabditis elegans, UniProt G5EF15); assay: disruptors of C. elegans POS-1 RNA interaction – biochemical, fluorescence polarization, dose response (AID 1964);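 note: purified POS-1 fused to maltose binding protein made in E. coli; potency of compounds blocking POS-1 binding to fluorescent RNA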
# T2 sequence (G5EF15 whole entry): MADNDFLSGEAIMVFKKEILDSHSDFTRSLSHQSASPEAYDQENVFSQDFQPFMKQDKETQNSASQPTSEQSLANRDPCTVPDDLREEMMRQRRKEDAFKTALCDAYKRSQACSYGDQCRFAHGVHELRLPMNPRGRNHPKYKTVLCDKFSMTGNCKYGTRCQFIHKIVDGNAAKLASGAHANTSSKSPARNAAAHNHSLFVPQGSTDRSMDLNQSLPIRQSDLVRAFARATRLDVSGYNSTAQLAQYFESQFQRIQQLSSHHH
# [9] = biological target: T3, Zinc finger protein mex-5 (Caenorhabditis elegans, UniProt Q9XUB2); assay: potency of MEX-5 RNA-binding blockers – biochemical, C. elegans, fluorescence polarization, dose response (AID 1960)
# T3 sequence (Q9XUB2 whole entry): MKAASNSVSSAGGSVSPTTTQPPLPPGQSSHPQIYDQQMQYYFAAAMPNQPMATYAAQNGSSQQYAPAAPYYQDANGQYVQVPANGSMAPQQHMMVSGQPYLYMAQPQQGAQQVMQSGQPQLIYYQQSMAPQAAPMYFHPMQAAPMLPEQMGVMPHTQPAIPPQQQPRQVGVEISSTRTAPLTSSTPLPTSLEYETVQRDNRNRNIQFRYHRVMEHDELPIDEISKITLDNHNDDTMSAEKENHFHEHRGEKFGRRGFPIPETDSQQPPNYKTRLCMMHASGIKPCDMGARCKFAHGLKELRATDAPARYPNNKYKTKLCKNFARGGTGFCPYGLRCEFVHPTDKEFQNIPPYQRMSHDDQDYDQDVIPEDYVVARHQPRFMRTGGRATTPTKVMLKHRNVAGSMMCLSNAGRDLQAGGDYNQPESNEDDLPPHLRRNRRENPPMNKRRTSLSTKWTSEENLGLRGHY
# [10] = biological target: Keap1/Nrf2 (Homo sapiens, UniProt Q14145); assay: disruptors of Keap1 binding to Nrf2 peptide – biochemical, fluorescence polarization, cherry-picked samples, dose response (AID 588683)
# [11] = biological target: Cytochrome P450 3A4 (Homo sapiens, UniProt P08684);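 note: CYP3A4 tested as one member of a cytochrome P450 panel screen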
# Cytochrome P450 3A4, sequence (P08684 whole entry): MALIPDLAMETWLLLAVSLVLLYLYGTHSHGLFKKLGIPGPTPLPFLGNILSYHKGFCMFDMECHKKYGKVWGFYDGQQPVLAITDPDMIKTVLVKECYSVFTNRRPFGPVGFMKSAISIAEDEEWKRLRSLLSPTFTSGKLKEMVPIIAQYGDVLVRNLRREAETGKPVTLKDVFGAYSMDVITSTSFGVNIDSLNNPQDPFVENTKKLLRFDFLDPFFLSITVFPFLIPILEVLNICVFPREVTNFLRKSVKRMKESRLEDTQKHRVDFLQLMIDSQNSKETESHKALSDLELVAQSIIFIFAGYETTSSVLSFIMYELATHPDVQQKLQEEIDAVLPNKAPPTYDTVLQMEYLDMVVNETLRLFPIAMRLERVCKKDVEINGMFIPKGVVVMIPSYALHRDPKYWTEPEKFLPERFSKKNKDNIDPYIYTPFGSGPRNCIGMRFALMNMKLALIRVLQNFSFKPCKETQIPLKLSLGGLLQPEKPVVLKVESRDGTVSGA
# [12] = biological target: CAAX prenyl protease 1 (Saccharomyces cerevisiae S288c, UniProt P47154); assay: yeast CAAX protease Ste24 inhibition – biochemical, S. cerevisiae, plate reader, cherry-pick, dose response (AID 488815)
# [13] = biological target: T4, CAAX prenyl protease 2 (Homo sapiens, UniProt Q9Y256); assay: inhibition of Ras-converting CAAX protease Rce1 – biochemical, yeast membranes, quenched-peptide fluorescence, cherry-pick, dose response (AID 588849)
# T4 sequence (Q9Y256 whole entry): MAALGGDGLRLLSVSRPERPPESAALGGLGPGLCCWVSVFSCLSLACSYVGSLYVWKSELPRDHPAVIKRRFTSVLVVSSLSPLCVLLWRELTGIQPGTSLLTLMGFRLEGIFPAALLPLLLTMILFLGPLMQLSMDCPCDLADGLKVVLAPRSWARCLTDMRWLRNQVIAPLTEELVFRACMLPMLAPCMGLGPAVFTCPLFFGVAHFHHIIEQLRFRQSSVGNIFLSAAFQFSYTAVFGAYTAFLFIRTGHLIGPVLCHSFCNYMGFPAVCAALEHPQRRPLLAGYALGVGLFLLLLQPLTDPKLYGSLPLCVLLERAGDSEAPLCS
# [14] = biological target: T5, Delta-type opioid receptor (Homo sapiens, UniProt P41143); assay: HTS Image-Based Screen for Antagonists of the DOR Receptor. [Related pubchem assays (depositor defined):AID1777, AID1785, AID1786, AID2133]; assay type: functional
# T5 sequence (P41143 whole entry): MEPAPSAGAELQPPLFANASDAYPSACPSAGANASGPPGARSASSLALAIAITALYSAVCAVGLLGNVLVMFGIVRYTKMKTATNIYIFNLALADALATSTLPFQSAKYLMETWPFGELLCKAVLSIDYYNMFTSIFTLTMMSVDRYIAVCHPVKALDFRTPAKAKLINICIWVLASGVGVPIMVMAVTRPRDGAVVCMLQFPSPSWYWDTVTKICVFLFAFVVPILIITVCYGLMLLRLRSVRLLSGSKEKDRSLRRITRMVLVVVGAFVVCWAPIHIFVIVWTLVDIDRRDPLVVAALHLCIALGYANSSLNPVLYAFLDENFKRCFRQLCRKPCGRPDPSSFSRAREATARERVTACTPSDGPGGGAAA
# [15] = luciferase reporter signal suppression in cells – H4 neuroglioma cells, luminescence, dose response (AID 1990); assay type: functional, cell-based
# [16] = biological target: Mu-type opioid receptor (Homo sapiens, UniProt P35372); assay: HTS Image-Based Screen for Agonists of the MOR Receptor. [Related pubchem assays (depositor defined):AID1777, AID1785, AID1786, AID2133]; assay type: functional;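 note: imaging of beta-arrestin GFP recruitment into spots after receptor activation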
# [17] = biological target: T5, Delta-type opioid receptor; assay: HTS Image-Based Screen for Agonists of the DOR Receptor. [Related pubchem assays (depositor defined):AID1777, AID1786, AID2133]; assay type: functional
# [18] = Luminescence Cell-Based Dose Response HTS to Identify Inhibitors of 5'UTR Stem-Loop Driven Prion Protein mRNA Translation in H4 Neuroglioblastoma Cells. [Related pubchem assays: 1827 (Project Summary), 1813 (Primary HTS)]; assay type: functional
# [19] = alpha-synuclein stem-loop luciferase translation blockers – H4 neuroglioma cells, luminescence, confirmation (AID 1988); assay type: functional, cell-based
# [20] = biological target: T6, Kappa-type opioid receptor (Homo sapiens, UniProt P41145); assay type: functional
# T6 sequence (P41145 whole entry): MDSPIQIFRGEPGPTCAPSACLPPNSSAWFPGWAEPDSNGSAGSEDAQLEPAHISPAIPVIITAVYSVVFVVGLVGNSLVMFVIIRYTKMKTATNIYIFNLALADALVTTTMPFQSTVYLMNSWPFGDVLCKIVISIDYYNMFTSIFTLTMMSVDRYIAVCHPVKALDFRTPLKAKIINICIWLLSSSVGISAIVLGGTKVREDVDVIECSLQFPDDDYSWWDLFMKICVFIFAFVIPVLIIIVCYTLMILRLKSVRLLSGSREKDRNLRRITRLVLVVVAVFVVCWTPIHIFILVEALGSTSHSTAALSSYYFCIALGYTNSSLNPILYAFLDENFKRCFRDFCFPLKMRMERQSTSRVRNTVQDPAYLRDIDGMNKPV
# [21] = biological target: Beta-galactosidase (Escherichia coli, UniProt Q8VNN2); assay type: functional
# [22] = biological target: T6, Kappa-type opioid receptor; assay type: functional; remark: listed apart in the source
# [23] = THP-1 cell cytotoxicity, dose response, cytotoxicity control for non-replicating M. tuberculosis project (AID 489025); assay type: functional
# [24] = Vero E6 cell cytotoxicity, dose response, cytotoxicity control for non-replicating M. tuberculosis project, secondary assay (AID 492998); assay type: functional, VeroE6; details: Vero C1008
# [25] = biological target: T7, Tyrosine-protein phosphatase non-receptor type 22 (Homo sapiens, UniProt Q9Y2R2); assay: SAR LYP1 Fluorescent Assay using pCAP substrate for In Vitro dose response studies - Set 2. [Related pubchem assays (depositor defined):AID1779, AID1784, AID2135, AID449727]; assay type: functional
# T7 sequence (Q9Y2R2 whole entry): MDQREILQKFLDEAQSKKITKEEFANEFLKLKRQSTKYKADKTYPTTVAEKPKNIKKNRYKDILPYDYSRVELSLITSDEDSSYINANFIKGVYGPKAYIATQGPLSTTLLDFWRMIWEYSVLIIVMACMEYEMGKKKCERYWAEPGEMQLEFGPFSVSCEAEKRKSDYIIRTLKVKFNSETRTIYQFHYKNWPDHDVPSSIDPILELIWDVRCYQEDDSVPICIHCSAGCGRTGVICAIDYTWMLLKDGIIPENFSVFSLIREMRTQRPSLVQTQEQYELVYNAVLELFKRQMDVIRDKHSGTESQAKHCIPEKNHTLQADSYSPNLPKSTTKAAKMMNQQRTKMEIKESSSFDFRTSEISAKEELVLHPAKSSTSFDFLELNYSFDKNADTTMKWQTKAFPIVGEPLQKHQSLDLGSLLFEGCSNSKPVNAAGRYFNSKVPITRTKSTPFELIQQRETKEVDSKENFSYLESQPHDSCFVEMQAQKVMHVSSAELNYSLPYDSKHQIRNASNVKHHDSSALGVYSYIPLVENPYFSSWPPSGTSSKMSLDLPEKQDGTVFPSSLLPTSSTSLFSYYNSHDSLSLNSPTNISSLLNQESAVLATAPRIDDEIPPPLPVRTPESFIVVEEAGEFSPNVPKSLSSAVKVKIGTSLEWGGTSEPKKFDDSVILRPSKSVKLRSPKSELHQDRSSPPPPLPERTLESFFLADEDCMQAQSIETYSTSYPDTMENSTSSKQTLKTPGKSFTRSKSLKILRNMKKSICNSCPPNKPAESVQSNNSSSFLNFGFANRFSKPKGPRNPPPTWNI
# [26] = biological target: T7, Tyrosine-protein phosphatase non-receptor type 22; assay: SAR LYP1 Fluorescent Assay using OMFP substrate for In Vitro dose response studies - Set 3. [Related pubchem assays (depositor defined):AID1779, AID1784, AID2140, AID2686]; assay type: functional
# [27] = biological target: T8, Tyrosine-protein phosphatase non-receptor type 7 (Homo sapiens, UniProt P35236); assay: inhibition of hematopoietic tyrosine phosphatase HePTP – biochemical, set 2, SAR follow-up (AID 449736); assay type: functional
# T8 sequence (P35236 whole entry): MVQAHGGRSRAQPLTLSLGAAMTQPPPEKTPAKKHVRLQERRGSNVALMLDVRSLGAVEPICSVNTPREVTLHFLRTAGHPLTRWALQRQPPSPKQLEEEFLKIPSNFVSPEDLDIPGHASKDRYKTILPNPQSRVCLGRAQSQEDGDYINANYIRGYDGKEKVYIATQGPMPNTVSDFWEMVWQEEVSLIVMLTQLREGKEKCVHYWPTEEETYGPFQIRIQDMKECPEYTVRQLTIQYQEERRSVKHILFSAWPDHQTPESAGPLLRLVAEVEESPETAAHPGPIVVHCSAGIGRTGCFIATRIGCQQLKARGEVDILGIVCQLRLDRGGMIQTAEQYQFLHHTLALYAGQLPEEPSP
# [28] = biological target: T7, Tyrosine-protein phosphatase non-receptor type 22; assay: inhibition of lymphoid tyrosine phosphatase LYP – biochemical, pCAP fluorogenic substrate, fluorescence, set 3, SAR follow-up (AID 449727); assay type: functional
# [29] = biological target: T7, Tyrosine-protein phosphatase non-receptor type 22; assay: SAR LYP1 Fluorescent Assay using OMFP substrate for In Vitro dose response studies - Set 2. [Related pubchem assays (depositor defined):AID1779, AID1784, AID2140, AID449726, AID488869]; assay type: functional
# [30] = biological target: Trypsin (Sus scrofa, UniProt P00761); assay: trypsin protease activity blockade – biochemical, quenched peptide fluorescence, cherry-pick, selectivity assay for Rce1 protease inhibitor project, dose response (AID 488789)
# [31] = biological target: T9, CAAX prenyl protease 2 (Saccharomyces cerevisiae S288c, UniProt Q03530); assay type: biochemical
# T9 sequence (Q03530 whole entry): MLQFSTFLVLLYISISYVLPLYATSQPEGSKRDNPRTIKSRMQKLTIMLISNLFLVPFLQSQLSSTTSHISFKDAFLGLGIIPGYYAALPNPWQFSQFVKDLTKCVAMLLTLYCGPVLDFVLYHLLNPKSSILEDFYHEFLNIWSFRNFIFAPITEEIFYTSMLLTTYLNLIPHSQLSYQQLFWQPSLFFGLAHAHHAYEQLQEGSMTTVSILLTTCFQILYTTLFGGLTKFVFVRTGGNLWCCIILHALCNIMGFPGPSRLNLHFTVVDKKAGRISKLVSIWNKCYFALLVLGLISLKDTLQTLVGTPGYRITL
# [32] = tested on: H9c2; assay: cells; assay type: functional, cell-based; details: Rattus norvegicus, H9c2, Myocardium;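 note: confirmatory concentration-response retest of ultra-high-throughput screening hits for modulation of myocardial damage; cell death induced by hydrogen peroxide oxidative stress; compound pretreatment for 60 min then peroxide exposure for 2 h; potency is for protecting the cells against peroxide damage rather than for killing them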
# T1 sequence (Q00975 whole entry): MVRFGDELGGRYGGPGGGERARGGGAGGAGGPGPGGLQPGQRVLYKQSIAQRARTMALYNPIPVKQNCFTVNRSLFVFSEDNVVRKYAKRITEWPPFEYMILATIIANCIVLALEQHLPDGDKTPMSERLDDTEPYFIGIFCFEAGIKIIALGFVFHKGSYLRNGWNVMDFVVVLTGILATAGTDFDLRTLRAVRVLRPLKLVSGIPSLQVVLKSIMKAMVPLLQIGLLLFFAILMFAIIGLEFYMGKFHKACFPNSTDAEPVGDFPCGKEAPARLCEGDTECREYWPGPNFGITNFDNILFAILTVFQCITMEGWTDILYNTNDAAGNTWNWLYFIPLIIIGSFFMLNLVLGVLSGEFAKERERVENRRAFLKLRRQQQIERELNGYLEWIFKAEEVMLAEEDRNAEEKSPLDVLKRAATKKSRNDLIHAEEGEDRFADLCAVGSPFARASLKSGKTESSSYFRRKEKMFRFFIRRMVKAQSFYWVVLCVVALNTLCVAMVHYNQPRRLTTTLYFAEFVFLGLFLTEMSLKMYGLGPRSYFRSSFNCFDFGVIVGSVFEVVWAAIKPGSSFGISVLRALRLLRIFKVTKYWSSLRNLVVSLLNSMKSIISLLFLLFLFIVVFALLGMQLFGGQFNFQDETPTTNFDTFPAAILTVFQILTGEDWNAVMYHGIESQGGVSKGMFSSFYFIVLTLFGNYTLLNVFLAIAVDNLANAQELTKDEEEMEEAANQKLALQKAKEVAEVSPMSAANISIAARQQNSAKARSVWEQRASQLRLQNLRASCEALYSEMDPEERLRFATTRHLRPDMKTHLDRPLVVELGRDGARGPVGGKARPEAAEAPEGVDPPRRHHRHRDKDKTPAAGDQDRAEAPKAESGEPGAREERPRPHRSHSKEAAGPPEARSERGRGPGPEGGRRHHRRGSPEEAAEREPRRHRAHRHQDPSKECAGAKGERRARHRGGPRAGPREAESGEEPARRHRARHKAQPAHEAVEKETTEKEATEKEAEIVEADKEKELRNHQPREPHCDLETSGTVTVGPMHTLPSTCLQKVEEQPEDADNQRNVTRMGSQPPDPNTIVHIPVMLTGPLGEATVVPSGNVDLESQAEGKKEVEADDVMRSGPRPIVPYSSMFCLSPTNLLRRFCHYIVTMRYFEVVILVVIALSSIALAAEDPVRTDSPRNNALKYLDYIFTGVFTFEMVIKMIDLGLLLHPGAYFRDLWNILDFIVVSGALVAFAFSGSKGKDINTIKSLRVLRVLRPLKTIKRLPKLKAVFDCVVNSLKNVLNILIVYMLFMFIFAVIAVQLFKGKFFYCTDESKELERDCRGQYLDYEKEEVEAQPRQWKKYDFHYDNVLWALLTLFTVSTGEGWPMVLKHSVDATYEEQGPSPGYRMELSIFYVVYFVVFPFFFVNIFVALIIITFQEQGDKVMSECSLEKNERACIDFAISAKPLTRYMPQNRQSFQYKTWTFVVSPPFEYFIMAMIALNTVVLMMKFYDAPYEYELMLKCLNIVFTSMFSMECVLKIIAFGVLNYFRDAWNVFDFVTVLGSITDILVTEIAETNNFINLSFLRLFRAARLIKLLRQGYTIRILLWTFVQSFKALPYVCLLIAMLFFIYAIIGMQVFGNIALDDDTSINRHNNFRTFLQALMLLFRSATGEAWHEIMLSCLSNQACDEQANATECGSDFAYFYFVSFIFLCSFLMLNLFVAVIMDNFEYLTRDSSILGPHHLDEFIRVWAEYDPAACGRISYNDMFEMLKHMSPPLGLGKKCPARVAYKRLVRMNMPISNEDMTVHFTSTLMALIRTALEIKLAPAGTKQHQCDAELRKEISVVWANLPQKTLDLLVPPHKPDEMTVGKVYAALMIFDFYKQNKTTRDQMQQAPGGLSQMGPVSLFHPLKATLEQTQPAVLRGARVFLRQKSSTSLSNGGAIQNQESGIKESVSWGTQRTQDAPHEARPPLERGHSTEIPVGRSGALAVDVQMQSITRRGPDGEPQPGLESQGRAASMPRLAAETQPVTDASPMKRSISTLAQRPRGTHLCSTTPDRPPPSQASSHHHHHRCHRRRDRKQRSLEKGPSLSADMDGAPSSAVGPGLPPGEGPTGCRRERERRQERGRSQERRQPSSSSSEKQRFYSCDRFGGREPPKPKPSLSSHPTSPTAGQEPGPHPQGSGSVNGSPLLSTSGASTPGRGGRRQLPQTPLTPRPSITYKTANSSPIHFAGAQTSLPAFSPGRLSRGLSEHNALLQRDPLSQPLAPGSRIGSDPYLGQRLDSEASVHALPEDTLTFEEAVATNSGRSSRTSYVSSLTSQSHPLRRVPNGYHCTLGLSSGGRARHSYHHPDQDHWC
# T1 sequence (Q02410 whole entry): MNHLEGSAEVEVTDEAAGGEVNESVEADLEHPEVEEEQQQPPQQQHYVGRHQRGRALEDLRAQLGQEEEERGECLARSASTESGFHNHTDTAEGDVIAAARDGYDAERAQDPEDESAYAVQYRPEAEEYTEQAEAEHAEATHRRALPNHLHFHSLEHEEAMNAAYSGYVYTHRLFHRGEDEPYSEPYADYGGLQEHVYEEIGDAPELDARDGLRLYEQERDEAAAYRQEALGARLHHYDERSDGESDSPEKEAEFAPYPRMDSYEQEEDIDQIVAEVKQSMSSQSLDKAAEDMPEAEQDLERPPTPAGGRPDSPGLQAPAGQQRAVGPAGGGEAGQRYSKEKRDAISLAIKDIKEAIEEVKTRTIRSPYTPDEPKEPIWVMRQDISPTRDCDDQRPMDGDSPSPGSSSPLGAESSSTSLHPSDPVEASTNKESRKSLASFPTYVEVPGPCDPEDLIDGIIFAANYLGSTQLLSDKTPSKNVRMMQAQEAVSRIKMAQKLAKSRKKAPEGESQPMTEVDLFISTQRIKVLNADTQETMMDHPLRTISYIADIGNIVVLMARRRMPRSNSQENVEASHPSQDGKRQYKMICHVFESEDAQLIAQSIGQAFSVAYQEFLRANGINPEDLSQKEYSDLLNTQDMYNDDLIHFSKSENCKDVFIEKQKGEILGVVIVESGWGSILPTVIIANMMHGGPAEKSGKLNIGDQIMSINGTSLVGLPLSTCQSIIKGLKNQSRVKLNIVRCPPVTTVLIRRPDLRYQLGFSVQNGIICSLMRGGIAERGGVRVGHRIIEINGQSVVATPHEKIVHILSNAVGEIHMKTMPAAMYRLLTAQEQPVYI
smiles,measurement,setting,value
COc1ccccc1OCCOc1ccc(/C=C2/C(=N)N3OC(C)=CC3=NC2=O)cc1OC,IC50,[1],0.212 µM (active)
same,IC50,[2],> 50 µM (inactive)
same,AC50,[3],2 µM (inconclusive)
same,AC50,[4],6.31 µM (inconclusive)
COc1cc(NC(=O)c2cccc(F)c2)ccc1NC(=O)c1cc2ccccc2o1,CC50,[5],> 50 µM (active)
same,IC50,[1],6.19 µM (active)
same,IC50,[2],> 50 µM (inactive)
CCOC(=O)Cn1c2ccccc2c2nc3ccccc3nc21,IC50,[6],29.6 µM (active)
same,EC50,[7],107 µM (active)
CCOc1cc(C2C(C#N)=C(N)OC(C)=C2C(C)=O)cc(Br)c1O (stereo not given),EC50,[8],12.3 µM (inconclusive)
same,EC50,[9],12.3 µM (active)
same,AC50,[10],> 52 µM (inactive)
CN1CCN(c2ncc3nc(-c4ccc(Cl)cc4)c(=O)n(C)c3n2)CC1,AC50,[11],inconclusive
O=C(Cn1c2ccccc2c(=O)c2ccccc21)Nc1ccccc1F,AC50,[12],6.04 µM (active)
same,AC50,[13],0.345 µM (active)
O=C(NNC1=Nc2ccccc2SC1)c1ccc(Cl)cc1,IC50,[14],> 32 µM (inactive)
same,EC50,[15],11 µM (active)
same,EC50,[16],> 32 µM (inactive)
same,EC50,[17],> 32 µM (inactive)
same,EC50,[18],18.4 µM (active)
same,EC50,[19],8.56 µM (active)
same,IC50,[20],10.5 µM (active)
same,EC50,[21],> 31.5 µM (inactive)
same,IC50,[22],> 32 µM
O=C(Nc1ccc(N2CCN(C(=O)c3ccco3)CC2)c(Cl)c1)c1cccs1,CC50,[23],> 40 µM (active)
same,CC50,[24],> 20 µM (active)
O=C(N/N=C/c1ccc(O)cc1)c1ccc(-c2csc(Nc3ccc(Cl)cc3)n2)cc1,IC50,[25],> 100 µM (inactive)
same,IC50,[26],> 100 µM (inactive)
same,IC50,[27],24.1 µM (active)
same,IC50,[28],> 100 µM (inactive)
same,IC50,[29],> 100 µM (inactive)
COC(=O)Cc1c(C)c2ccc(OCc3nn[nH]n3)c(C)c2oc1=O,AC50,[30],21.3 µM (active)
same,AC50,[31],24.6 µM (active)
same,AC50,[12],12.6 µM (active)
same,AC50,[13],29.6 µM (active)
Cc1c(C(=O)Nc2ccc(F)cc2)cn2c(nc3ccccc32)c1C#N,IC50,[6],41.7 µM (active)
CC(OC(=O)c1cc2c(ccc3ccccc32)oc1=O)c1nc2ccccc2s1 (stereo not given),IC50,[14],> 32 µM (inactive)
same,EC50,[16],> 32 µM (inactive)
same,EC50,[17],> 32 µM (inactive)
same,IC50,[20],10.5 µM (active)
same,EC50,[21],> 31.5 µM (inactive)
same,IC50,[22],> 32 µM
same,IC50,[32],> 79 µM (inactive)
COc1ccc(-c2cc(C(=O)Nc3cnn(Cc4ccccc4C)c3)no2)cc1OC,AC50,[3],25.1 µM (inconclusive)
same,AC50,[11],inconclusive
